The assay addresses Platelet-activating factor receptor (Oryctolagus cuniculus). Description: In vitro inhibition of PAF induced aggregation of rabbit platelets.
As a reminder, the IC50 is the concentration at which inhibition is half-maximal. A lower IC50 goes with greater potency in that assay. Turning to `CC[n+]1ccccc1CN(C(C)=O)C(=O)OCC1COC(OCCCCCCOCCCCCc2ccccc2)C1` (stereo not given), the IC50 worked out at 0.015 µM. This lies in the double-digit nanomolar range.

The compound `CC[n+]1ccccc1CN(C(C)=O)C(=O)OCC1COC(OCCC(c2ccccc2)c2ccccc2)C1` (stereo not given) came in with an IC50 of 0.26 µM.

Consider `CCOC1CC(COC(=O)N(Cc2cccc[n+]2CC)C(C)=O)CO1` (stereo not given), for which 2.8 µM corresponded to half-maximal inhibition (IC50).

In turn, `CC[n+]1ccccc1CN(C(C)=O)C(=O)OCC1COC(OCCCCCCOCc2ccc(-c3ccccc3)cc2)C1` (stereo not given) showed a 50% inhibitory concentration (IC50) of 0.015 µM.

As for `CC[n+]1ccccc1CN(C(C)=O)C(=O)OCC1COC(OCCCc2ccccc2)C1` (stereo not given), the midpoint of inhibition, the IC50, lay at 0.19 µM.

`CC[n+]1ccccc1CN(C(C)=O)C(=O)OCC1COC(OCCCCCCOCCCc2ccccc2)C1` (stereo not given): the IC50 was 0.051 µM.

For `CC[n+]1ccccc1CN(C(C)=O)C(=O)OCC1COC(OCCCCCCCCCCCCCCCCOC)C1` (stereo not given), the IC50 came out at 0.0021 µM.

In the case of `C=CCCCCCCOCCCCCCOC1CC(COC(=O)N(Cc2cccc[n+]2CC)C(C)=O)CO1` (stereo not given), the IC50 worked out at 0.025 µM.

In turn, `CCCCCCCCCCCCCCCCCCCCOC1CC(COC(=O)N(Cc2cccc[n+]2CC)C(C)=O)CO1` (stereo not given) gave an IC50 of 0.04 µM.

On to `CCCCCCCCCCCCCCCCOC1CC(COC(=O)N(Cc2cccc[n+]2CC)C(C)=O)CO1` (stereo not given), for which the IC50 stood at 0.0097 µM.

Values taken from BindingDB's records for doi:10.1021/jm00082a007 (J. Uriach & Cía., 1992).
